Reference: PubChem BioAssay (NCI)
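1) Cells in 96-well plates. 2) Compound, 48 h, 5 concentrations. 3) Linear interpolation between surrounding doses. 4) Unreached endpoint = highest concentration. GI50 marks 50% less growth. At the TGI there is no net growth.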

What was measured:
Assay in all cases: NCI anticancer screen, dose series, 48 h
A498 renal = system: A498 renal
MDA-MB-435 = system: MDA-MB-435
NCI/ADR-RES ovarian = system: NCI/ADR-RES ovarian
HS 578T breast = system: HS 578T breast
BT-549 breast = system: BT-549 breast
IGROV1 ovarian = system: IGROV1 ovarian
M14 melanoma = system: M14 melanoma
T-47D breast = system: T-47D breast
SNB-75 CNS = system: SNB-75 CNS
MCF7 breast = system: MCF7 breast
786-0 renal = system: 786-0 renal

| Structure (SMILES) | TGI (A498 renal) | TGI (MDA-MB-435) | TGI (NCI/ADR-RES ovarian) | TGI (HS 578T breast) | TGI (BT-549 breast) | TGI (IGROV1 ovarian) | TGI (M14 melanoma) | TGI (T-47D breast) | TGI (SNB-75 CNS) | TGI (MCF7 breast) | TGI (786-0 renal) | GI50 (A498 renal) | GI50 (MDA-MB-435) | GI50 (NCI/ADR-RES ovarian) | GI50 (HS 578T breast) | GI50 (IGROV1 ovarian) | GI50 (M14 melanoma) | GI50 (T-47D breast) | GI50 (SNB-75 CNS) | GI50 (MCF7 breast) |
| --- | --- | --- | --- | --- | --- | --- | --- | --- | --- | --- | --- | --- | --- | --- | --- | --- | --- | --- | --- | --- |
| Brc1ccccc1-c1ncc(-c2ccccc2)o1 | 60.5 µM | 60.4 µM | > 100 µM | 41 µM | > 100 µM | 78.7 µM | > 100 µM | > 100 µM | 59.7 µM | > 100 µM | – | – | – | – | – | – | – | – | – | – |
| COc1cc(C2c3cc4c(cc3[C@@H](Nc3cccc(C(C)=O)c3)C3COC(=O)[C@H]23)OCO4)cc(OC)c1O (some centres not stated) | 1.6 µM | – | > 100 µM | – | – | 24.6 µM | – | – | – | 28.2 µM | – | – | – | – | – | – | – | – | – | – |
| CC1(C)N=C(N)N=C(N)N1c1cccc(OCCOc2ccc([N+](=O)[O-])cc2)c1 | > 100 µM | > 100 µM | – | > 100 µM | > 100 µM | > 100 µM | > 100 µM | – | – | > 100 µM | > 100 µM | – | – | – | – | – | – | – | – | – |
| COc1ccc(CC(C)N)cc1 (configuration not stated) | > 100 µM | – | – | – | – | > 100 µM | > 100 µM | – | > 100 µM | – | > 100 µM | – | – | – | – | – | – | – | – | – |
| CC(C)(Br)C1(O)CCCN1C(=O)c1ccccc1 (configuration not stated) | > 100 µM | – | – | – | – | > 100 µM | > 100 µM | – | > 100 µM | – | – | – | – | – | – | – | – | – | – | – |
| NCc1ccccc1C1CSCSC1 | – | – | – | – | – | – | – | – | > 100 µM | – | – | – | – | – | – | – | – | – | – | – |
| CC12Cc3cc4c(cc3C1(c1ccc([N+](=O)[O-])cc1)OCCO2)OCO4 (configuration not stated) | > 100 µM | > 100 µM | > 100 µM | 86.4 µM | 91.9 µM | 85.1 µM | > 100 µM | > 100 µM | – | > 100 µM | > 100 µM | – | – | – | – | – | – | – | – | – |
| O=C(CSCC(=O)N/N=C\c1ccc(-c2ccccc2)cc1)N/N=C\c1ccc(-c2ccccc2)cc1 | – | 46.1 µM | > 100 µM | 49.8 µM | 66.3 µM | 29.2 µM | 91.2 µM | > 100 µM | 41.6 µM | > 100 µM | > 100 µM | – | – | – | – | – | – | – | – | – |
| c1ccc(-c2nn(-c3ccccc3)[n+](-c3ccccc3)n2)cc1 | > 100 µM | 23.5 µM | > 100 µM | > 100 µM | > 100 µM | > 100 µM | 47.5 µM | > 100 µM | > 100 µM | 25.9 µM | > 93.5 µM | – | – | – | – | – | – | – | – | – |
| Cc1ccc(S(N)(=O)=O)cc1 | > 1000 µM | > 1000 µM | > 1000 µM | > 1000 µM | > 1000 µM | > 1000 µM | > 1000 µM | > 1000 µM | – | > 1000 µM | > 1000 µM | – | – | – | – | – | – | – | – | – |
| COc1ccc(NC(=O)/C(=C/c2ccc(N(CCC#N)CCC#N)cc2)NC(=O)c2cc([N+](=O)[O-])ccc2Cl)cc1 | – | – | – | – | – | > 100 µM | > 100 µM | – | – | – | – | – | – | – | – | – | – | – | – | – |
| CCOC(=O)/C=C(\C)c1ccc(OC)cc1 | > 100 µM | – | – | – | – | > 100 µM | > 100 µM | – | > 100 µM | – | – | – | – | – | – | – | – | – | – | – |
| c1ccc(CSc2nc(N3CCOCC3)c3cn[nH]c3n2)cc1 | 26.1 µM | 40 µM | 55.6 µM | 39.3 µM | 40.3 µM | 31.7 µM | 49 µM | 68.5 µM | > 100 µM | > 100 µM | > 100 µM | – | – | – | – | – | – | – | – | – |
| CC[n+]1c(/C=C/c2ccc(N(CCCl)CCCl)cc2)ccc2cc(NC(=O)/C=C/c3ccccc3)ccc21 | 27.4 µM | 1.07 µM | > 100 µM | 1.25 µM | 1.58 µM | 1.86 µM | 3.28 µM | 1.5 µM | 1.05 µM | 1.24 µM | 3.22 µM | – | – | – | – | – | – | – | – | – |
| ClCc1c(Cl)c(Cl)c(Cl)c(CCl)c1Cl | 12.5 µM | 5.68 µM | 17.3 µM | 5.61 µM | – | 4.19 µM | 3.43 µM | 3.87 µM | 7.73 µM | 3.7 µM | – | 2.45 µM | 2.16 µM | 3.5 µM | 2.15 µM | 1.97 µM | 1.66 µM | 1.99 µM | 2.15 µM | 1.73 µM |
| COC(=O)c1cc(C#Cc2cc(OC)ccc2OC)ccc1OC | – | > 100 µM | > 100 µM | > 100 µM | > 100 µM | > 100 µM | > 100 µM | 34.5 µM | > 100 µM | > 100 µM | > 100 µM | – | – | – | – | – | – | – | – | – |
| CN(C)c1ccc(N=Nc2ccccn2)cc1 | 94.7 µM | > 100 µM | 66.1 µM | > 100 µM | > 100 µM | > 100 µM | > 100 µM | > 100 µM | > 100 µM | 14.6 µM | > 100 µM | – | – | – | – | – | – | – | – | – |
| COc1cc[n+](C)cc1 | – | – | > 100 µM | – | – | > 100 µM | – | – | > 100 µM | > 100 µM | – | – | – | – | – | – | – | – | – | – |
| COc1ccc(NC(=O)/C(CC2=Nc3ccc([N+](=O)[O-])cc3NC2O)=N\NC(=O)C[N+](C)(C)C)c(OC)c1 (configuration not stated) | – | > 100 µM | > 100 µM | > 100 µM | > 100 µM | > 100 µM | > 100 µM | – | > 100 µM | > 100 µM | 68.8 µM | – | – | – | – | – | – | – | – | – |
| Cc1nc2ccccc2c(=O)[nH]1 | > 100 µM | – | – | – | – | > 100 µM | > 100 µM | – | > 100 µM | – | > 100 µM | – | – | – | – | – | – | – | – | – |
| N#Cc1c(NC(=S)NC(=O)c2ccccc2)nc2c(c1-c1ccccc1)CCCC2 | – | > 100 µM | > 100 µM | 35 µM | 96.1 µM | > 100 µM | > 100 µM | > 100 µM | 41.5 µM | > 100 µM | – | – | – | – | – | – | – | – | – | – |
| C=C1C(=O)OC2C1CC(O)/C(C)=C\CCC1(C)OC21 (configuration not stated) | > 100 µM | 89.6 µM | 62.3 µM | 67.9 µM | 43.2 µM | > 100 µM | 64.4 µM | > 100 µM | > 100 µM | 86.1 µM | > 100 µM | – | – | – | – | – | – | – | – | – |
| COc1ccc(-c2cc(N3CCN(c4ccccc4)CC3)c(C#N)c(=O)o2)cc1 | 64.9 µM | – | – | – | – | > 100 µM | > 100 µM | – | 31.7 µM | – | – | – | – | – | – | – | – | – | – | – |
| CCC(C)C(=O)c1c(O)c(C/C=C(\C)CCC=C(C)C)c(O)c2c(C(O)CC)cc(=O)oc12 (configuration not stated) | 6.15 µM | – | – | – | – | 13.6 µM | 14.4 µM | – | 5.84 µM | – | – | – | – | – | – | – | – | – | – | – |
| O=[N+]([O-])c1cn[n+]([O-])c2ccccc12 | 40.1 µM | 27.8 µM | 19.2 µM | 29.1 µM | 18.8 µM | – | 13 µM | 18 µM | – | 50.1 µM | 12.3 µM | – | – | – | – | – | – | – | – | – |
| CCO/N=[N+](\[O-])N(CC)CC | > 100 µM | – | – | – | – | > 100 µM | > 100 µM | – | – | – | – | – | – | – | – | – | – | – | – | – |
| Cc1cn(Cc2ccccc2CCl)c(=O)[nH]c1=O | – | 29 µM | 36.2 µM | 56.6 µM | – | 13.9 µM | 28.2 µM | 44.8 µM | 30 µM | 19 µM | 30.2 µM | – | – | – | – | – | – | – | – | – |
| COC(=O)/C=c1/c2ccccc2n2nc3ccccc3c12 | 93.3 µM | > 100 µM | > 100 µM | > 100 µM | > 100 µM | > 100 µM | > 100 µM | > 100 µM | – | > 100 µM | > 100 µM | – | – | – | – | – | – | – | – | – |
